Like-named read-outs stand apart in the source and are kept apart here. A value given as a limit tells only on which side of the number the result lay.

In general, LD50 refers to the dose at which mortality reaches 50%.

The subject of one series is narcotised guinea pigs. Put plainly: Blood pressure experiments on the narcotised guinea pig (i.v.). As to conditions: for blood pressure afterwards: after administration; for blood pressure previously: before administration (baseline); for blood pressure-lowering effectiveness compared with ISMN and ISDN: in words, guinea pig i.v., Table III.
Series [1] relates to isolated guinea pig hearts. Put plainly: Experiments on the Langendorff heart (isolated guinea pig hearts). As to conditions: Cavia porcellus, 25 μg./ml. test substance in 50 ml. tyrode solution, average of 3-6 hearts.
Series [2] deals with isolated rat aorta preparations.
Source text: Here, too, ISDN and ISMN were chosen as comparison compounds.
Another series can be described thus: in vivo. As to conditions: mouse, iv, Evaluated LD50 -range, mice, as hydrochloride.
The test system of the next series is female NMRI-albino mice. Put plainly: Acute toxicity, intravenous, female NMRI-albino mice. The following applies: for Frequency of death with an intravenous dose of 200 mg/kg: 200 mg/kg i.v. as hydrochloride in physiological saline; for Frequency of death with an intravenous dose of 200 mg/kg / Frequency of death with an intravenous dose of 100 mg/kg: death within 24 hours, dead/treated; for Frequency of death with an intravenous dose of 100 mg/kg: 100 mg/kg i.v. as hydrochloride in physiological saline.

The subject of a further series is mongrel cats. Description: Heart-circulation effectiveness in narcotised mongrel cats, intraduodenal administration. As to conditions: 5 mg/kg intraduodenal, cat.
[3] abbreviates: read-out: flowthrough, percentage change in comparison with the initial value.
[4] abbreviates: read-out: frequency, percentage change in comparison with the initial value.
Setting [5] is: read-out: inotropism, percentage change in comparison with the initial value.
The mark [6] stands for this setting: read-out: noradrenaline spasm, […].
[7] abbreviates: read-out: potassium chloride spasm, […].
Setting [8] is: 0 min (baseline), average ± standard error, 6 animals.

Procedure for female NMRI-albino mice: (§1) The compounds were injected to at least 3 animals per dose. If no animal had yet been died following to the highest dose which was administered, no more doses of substances were tested. In case of doubt, the examination was repeated with at least 3 more animals applying the same dose.
(§2) The rate of death within 24 hours after administration was observed.
Procedure for in vivo: as §1, §2
Procedure for mongrel cats: The animals were narcotised with a mixture of chloralose-urethane (1.2 g./kg. urethane+40 mg./kg chloralose administered i.p.). They breathed spontaneously through a tracheal canula. The A. carotis was used in order to place a catheter tip manometer in the left heart chamber. The V. jugularis served for injection purposes. Via the A. femoralis, a catheter was inserted into the Aorta descendans and attached to a pressure recorder (Statham P 23 Db). The heart frequency was recorded with a pulse frequency measurer (firm Hugo Sachs Elektronik) from the left ventricular pressure signal. A duodenal loop was exposed by laparotomy. The substances to be tested were injected directly into the lumen.

Regarding `O=[N+]([O-])O[C@H]1CO[C@H]2[C@@H]1OC[C@@H]2Oc1ccc(Cl)cc1` [Example 1c, 5-O-(4-Chlorophenyl)-1.4;3.6-dianhydro-L-iditol 2-nitrate], the “blood pressure Δ” value with narcotised guinea pigs (0.25 mg/kg i.v.) is on record as -1.60 mm.Hg; with narcotised guinea pigs (1.00 mg/kg i.v.), -15.00 mm.Hg; in the series with narcotised guinea pigs (2.50 mg/kg i.v.) it was -23.00 mm.Hg. Further, the blood pressure afterwards in the series on narcotised guinea pigs (0.25 mg/kg i.v.) turned out to be 59.70 ± 2.40 mm.Hg; in the series on narcotised guinea pigs (1.00 mg/kg i.v.), 46.90 ± 1.20 mm.Hg; in the series on narcotised guinea pigs (2.50 mg/kg i.v.) it was 37.60 ± 1.00 mm.Hg. In addition, the blood pressure previously with narcotised guinea pigs (0.25 mg/kg i.v.) was 61.30 ± 2.60 mm.Hg; in the series with narcotised guinea pigs (1.00 mg/kg i.v.), 61.90 ± 1.90 mm.Hg; in the series on narcotised guinea pigs (2.50 mg/kg i.v.), 60.60 ± 1.80 mm.Hg. Further, the activation at 25 µg/mL turned out to be 19.8% in series [1] (setting [3]), 2.89% in series [1] (setting [4]) and 12.2% in series [1] (setting [5]). Also, the figures for the IC50 in series [2] (setting [6]) and in series [2] (setting [7]) were 0.14 µM and 3.18 µM, respectively.

For `O=C(O[C@H]1CO[C@H]2[C@@H]1OC[C@H]2O[N+](=O)[O-])c1cccnc1` [Example 7b, 1.4;3.6-Dianhydro-D-glucitol 2-nicotinate 5-nitrate], the LD50 at 24 h in “in vivo” was more than 200 mg/kg. In addition, the “Frequency of death with an intravenous dose of 200 mg/kg” value (from here on “Frequency of death … of 200 mg/kg”) in the series with female NMRI-albino mice is 0/6. The IC50 in series [2] (setting [6]) was 20 µM; in series [2] (setting [7]), 44 µM.

The compound `O=C(O[C@H]1CO[C@H]2[C@@H]1OC[C@@H]2O[N+](=O)[O-])c1cccnc1` [Example 2b, 1.4;3.6-Dianhydro-L-iditol 2-nitrate 5-nicotinate] came in with an LD50 at 24 h in the series “in vivo” not below 200 mg/kg. Also, in the series with female NMRI-albino mice, the “Frequency of death with an intravenous dose of 100 mg/kg” value (“Frequency of death … of 100 mg/kg” below) is reported as 0/6. In addition, the “Frequency of death … of 200 mg/kg” value in the series with female NMRI-albino mice is on record as 2/6. For the same compound, the “blood pressure Δ” value in the series on narcotised guinea pigs (0.25 mg/kg i.v.) is reported as -11.40 mm.Hg; with narcotised guinea pigs (1.00 mg/kg i.v.), -15.60 mm.Hg; with narcotised guinea pigs (2.50 mg/kg i.v.), -20.70 mm.Hg. For the same compound, the results for the blood pressure afterwards with narcotised guinea pigs (0.25 mg/kg i.v.), with narcotised guinea pigs (1.00 mg/kg i.v.) and with narcotised guinea pigs (2.50 mg/kg i.v.) were 47.30 ± 2.60 mm.Hg, 42.70 ± 1.80 mm.Hg and 33.00 ± 1.00 mm.Hg, respectively. Moreover, the blood pressure previously came out at 58.70 ± 4.30 mm.Hg in the series with narcotised guinea pigs (0.25 mg/kg i.v.), 58.30 ± 2.00 mm.Hg in the series with narcotised guinea pigs (1.00 mg/kg i.v.) and 53.70 ± 3.30 mm.Hg with narcotised guinea pigs (2.50 mg/kg i.v.). Moreover, in the series on narcotised guinea pigs, the “blood pressure-lowering effectiveness compared with ISMN and ISDN” value was “actions similar to those of ISDN”. Moreover, the activation at 25 µg/mL came to 35.4% in series [1] (setting [3]), 0% in series [1] (setting [4]) and 3.36% in series [1] (setting [5]). The IC50 came out at 0.28 µM in series [2] (setting [6]) and 3.1 µM in series [2] (setting [7]).

The compound `O=C(O[C@@H]1CO[C@H]2[C@@H]1OC[C@H]2O[N+](=O)[O-])c1cccnc1` [Example 8, 1.4;3.6-Dianhydro-D-mannitol 2-nitrate 5-nicotinate] had an LD50 at 24 h in “in vivo” of less than 200 mg/kg. For the same compound, in the series with female NMRI-albino mice, the “Frequency of death … of 100 mg/kg” value is recorded as 0/6 and the “Frequency of death … of 200 mg/kg” value was 3/3. Further, the “Evaluated LD50 -range” value in the series with female NMRI-albino mice (i.v., mice, as hydrochloride, 24 hours, 1440 min) is more than 100 mg/kg.

On to `CS(=O)(=O)O[C@@H]1CO[C@H]2[C@@H]1OC[C@@H]2O[N+](=O)[O-]` [Example 4, 1.4;3.6-Dianhydro-D-glucitol 2-nitrate 5-methanesulphonate], for which the activation at 25 µg/mL stood at 44.3% in series [1] (setting [3]), 0% in series [1] (setting [4]) and 0% in series [1] (setting [5]). Further, the IC50 in series [2] (setting [6]) is 2.2 µM; in series [2] (setting [7]) it was 2.8 µM.

`O=C(O[C@@H]1CO[C@H]2[C@@H]1OC[C@@H]2O[N+](=O)[O-])c1cccnc1` [Example 5b, 1.4;3.6-Dianhydro-D-glucitol 2-nitrate 5-nicotinate] gave an LD50 at 24 h in the series “in vivo” of more than 100 mg/kg. Moreover, the “Frequency of death … of 100 mg/kg” value in the series with female NMRI-albino mice is on record as 0/6. Besides, the “blood pressure Δ” value is on record as -7.70 mm.Hg with narcotised guinea pigs (0.25 mg/kg i.v.); -18.00 mm.Hg in the series with narcotised guinea pigs (1.00 mg/kg i.v.); -28.00 mm.Hg in the series with narcotised guinea pigs (2.50 mg/kg i.v.); -25.2 mm.Hg in the series with mongrel cats (10 min versus 0 min); -28.7 mm.Hg in the series with mongrel cats (30 min versus 0 min); -29.7 mm.Hg with mongrel cats (60 min versus 0 min). Besides, the “blood pressure Δ” value in the series on mongrel cats (120 min versus 0 min) was -22.2 mm.Hg. For the same compound, the blood pressure afterwards worked out at 55.00 ± 1.00 mm.Hg with narcotised guinea pigs (0.25 mg/kg i.v.), 44.30 ± 0.90 mm.Hg in the series with narcotised guinea pigs (1.00 mg/kg i.v.) and 33.30 ± 0.70 mm.Hg with narcotised guinea pigs (2.50 mg/kg i.v.). The blood pressure previously is given as 62.70 ± 3.00 mm.Hg in the series with narcotised guinea pigs (0.25 mg/kg i.v.), 62.30 ± 4.10 mm.Hg in the series on narcotised guinea pigs (1.00 mg/kg i.v.) and 61.30 ± 4.90 mm.Hg in the series with narcotised guinea pigs (2.50 mg/kg i.v.). For the same compound, the “blood pressure-lowering effectiveness compared with ISMN and ISDN” value with narcotised guinea pigs is “actions similar to those of ISDN”. For the same compound, the activation at 25 µg/mL in series [1] (setting [3]) is 23.6%; in series [1] (setting [4]), -9.13%; in series [1] (setting [5]), 15.8%. Besides, the values for the IC50 in series [2] (setting [6]) and in series [2] (setting [7]) were 6.2 µM and 22.5 µM, respectively. The blood pressure came to 123.5 ± 7.3 mm.Hg in the series on mongrel cats (setting [8]); 98.3 ± 6.2 mm.Hg with mongrel cats (10 min after admin.); 94.8 ± 7.2 mm.Hg with mongrel cats (30 min after admin.); 93.8 ± 7.8 mm.Hg with mongrel cats (60 min after admin.); 101.3 ± 11.2 mm.Hg in the series on mongrel cats (120 min after admin.). Moreover, the “dp/dt (inotropism)” value with mongrel cats (setting [8]) worked out at 10625 ± 2083 mm.sec; in the series with mongrel cats (10 min after admin.), 8050 ± 1204 mm.sec; with mongrel cats (30 min after admin.) it was 7975 ± 1216 mm.sec; in the series with mongrel cats (60 min after admin.), 8275 ± 309 mm.sec; in the series on mongrel cats (120 min after admin.), 7500 ± 1022 mm.sec. Moreover, the heart frequency in the series with mongrel cats (setting [8]) turned out to be 211.5 ± 19.3 min⁻¹; in the series on mongrel cats (10 min after admin.), 209.5 ± 19.2 min⁻¹; in the series with mongrel cats (30 min after admin.), 212.5 ± 21.6 min⁻¹; in the series on mongrel cats (60 min after admin.) it was 225.0 ± 16.2 min⁻¹; in the series with mongrel cats (120 min after admin.) it was 228.0 ± 15.6 min⁻¹. The “dp/dt Δ” value in the series on mongrel cats (10 min versus 0 min) is on record as -2575 mm.sec; in the series with mongrel cats (30 min versus 0 min) it was -2650 mm.sec; with mongrel cats (60 min versus 0 min), -2350 mm.sec; in the series on mongrel cats (120 min versus 0 min), -3125 mm.sec.

The values are drawn from patent publication US4364953A, “2-0- and 5-0-Substituted 1.4;3.6-dianhydrohexitol mononitrates and pharmaceutical composition” (Firma Willmar Schwabe, priority 1980, dated 1982).
